Results: PubChem BioAssay (NCI)
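Test compounds were applied to cells in 96-well plates for 48 hours at 5 doses. TGI: total growth inhibition.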

What was measured:
Experiment in all cases: NCI tumour cell line growth inhibition, 48 h
[1] = test system: HOP-62 NSCLC
[2] = test system: NCI/ADR-RES ovarian
[3] = test system: MDA-MB-231 breast
[4] = test system: OVCAR-5 ovarian
[5] = test system: MOLT-4 leukemia
[6] = test system: U251 CNS
[7] = test system: UO-31 renal
[8] = test system: HCT-15 colon

For `O=C(NCc1cccc(C(F)(F)F)c1)c1cc2sccc2nc1C(F)(F)F`, the TGI [1] was over 100 µM, the TGI [2] was over 100 µM and the TGI [3] was over 100 µM. For the same molecule, the TGI [4] was over 100 µM, the TGI [5] was over 100 µM and the TGI [6] was over 100 µM. The TGI [7] was over 100 µM.

For `O=[N+]([O-])c1ccc2nc(-c3ccccn3)c(-c3ccccn3)nc2c1`, the TGI [1] was over 100 µM, the TGI [2] was over 100 µM and the TGI [4] was over 100 µM. For the same molecule, the TGI [5] was over 100 µM, the TGI [8] was over 100 µM and the TGI [6] was over 100 µM. For the same molecule, the TGI [7] was over 100 µM.

With `O=C1NC(=O)/C(=C/c2ccc(S(=O)(=O)N/N=C/c3ccc(Cl)cc3)cc2)N1` the TGI [1] was over 100 µM, the TGI [2] was over 100 µM and the TGI [3] was over 100 µM. For the same molecule, the TGI [4] was over 100 µM, the TGI [5] was over 100 µM and the TGI [8] was over 100 µM. It also gave a TGI [6] of over 100 µM and a TGI [7] of over 100 µM.

With `CC1(C)OCC(C(O)C2OC(C)(C)OC2C=O)O1` (stereo not given) the TGI [1] was over 100 µM, the TGI [2] was over 100 µM and the TGI [3] was over 100 µM. It also gave a TGI [4] of over 100 µM, a TGI [5] of over 100 µM and a TGI [8] of over 100 µM. The TGI [6] was over 100 µM and the TGI [7] was over 100 µM.

Work on `O=[N+]([O-])c1ccc(S[C@@H]2[C@H]3c4c(-c5ccccc5)[nH]c(-c5ccccc5)c4[C@@H]2C[C@H]3Cl)cc1` yielded a TGI [1] of 67.6 µM, a TGI [2] of 26.4 µM and a TGI [3] of over 100 µM. For the same molecule, the TGI [4] was over 100 µM, the TGI [8] was 6.84 µM and the TGI [6] was over 100 µM. It also gave a TGI [7] of 28.4 µM.

For `CCOC(=O)c1c(N2CCCC2)ncn(-c2ccccc2)c1=S`, the TGI [1] was over 100 µM, the TGI [2] was over 100 µM and the TGI [4] was over 100 µM. The TGI [5] was over 100 µM, the TGI [8] was over 100 µM and the TGI [6] was over 100 µM. The TGI [7] was over 100 µM.

In the case of `COC1OC(Cc2nnc(C)o2)C(OCc2ccccc2)C(OCc2ccccc2)C1OCc1ccccc1` (stereo not given), the TGI [1] was over 100 µM, the TGI [2] was 70 µM and the TGI [3] was over 100 µM. For the same molecule, the TGI [4] was over 100 µM, the TGI [5] was 33 µM and the TGI [8] was over 100 µM. The TGI [6] was over 100 µM and the TGI [7] was over 100 µM.

`CN1CCN(c2c(Cl)cc(Cl)c3[nH]c4ccccc4c(=O)c23)CC1` showed a TGI [1] of 19.5 µM, a TGI [2] of 28.9 µM and a TGI [3] of 28.7 µM. For the same molecule, the TGI [4] was 29.3 µM, the TGI [5] was 9.96 µM and the TGI [8] was 17.1 µM. The TGI [6] was 19.7 µM and the TGI [7] was 17.3 µM.

Molecule `COc1ccc(N(C)C(=O)N(C)c2ccc([N+](=O)[O-])cc2)cc1` has a TGI [1] of over 100 µM, a TGI [2] of 68.4 µM and a TGI [3] of over 100 µM. The TGI [4] was over 100 µM, the TGI [5] was over 100 µM and the TGI [8] was over 100 µM. For the same molecule, the TGI [6] was over 100 µM and the TGI [7] was over 100 µM.

With `Cn1nc2n(c1=O)CCCN2` the TGI [1] was over 100 µM, the TGI [2] was over 100 µM and the TGI [3] was over 100 µM. The TGI [4] was over 100 µM, the TGI [8] was over 100 µM and the TGI [6] was over 100 µM.

Work on `CC(=O)/C(=C/n1c(=S)[nH]c2ccccc21)C(=O)Nc1ccccc1C` yielded a TGI [1] of over 100 µM, a TGI [2] of over 100 µM and a TGI [3] of over 100 µM. It also gave a TGI [4] of over 100 µM, a TGI [5] of over 100 µM and a TGI [8] of over 100 µM. For the same molecule, the TGI [6] was over 100 µM and the TGI [7] was over 100 µM.

With `CCOP(=O)(OCC)C(Nc1cccc(F)c1)c1ccccc1` (stereo not given) the TGI [1] was over 100 µM, the TGI [2] was over 100 µM and the TGI [3] was over 100 µM. The TGI [5] was over 100 µM, the TGI [8] was over 100 µM and the TGI [6] was over 100 µM. The TGI [7] was over 100 µM.

`Cc1ccccc1-n1c(C)nc2c1C(=O)c1ccccc1C2=O` showed a TGI [1] of over 100 µM, a TGI [4] of over 100 µM and a TGI [5] of over 100 µM. The TGI [8] was over 100 µM, the TGI [6] was over 100 µM and the TGI [7] was over 100 µM.
